Source: US10463656B2, “Methods and compositions for prevention of feedlot bovine respiratory disease” (Iowa State University Research Foundation, Inc., priority 2017, dated 2019)
“Also recorded” adds a separate entry of the source.

Experiments:
Bovine PAFR = target: T1, Bovine PAFR (Bos taurus, UniProt Q9TTY5); test: PAF-mediated intracellular calcium accumulation in BHK cells transiently expressing bovine PAFR; assay type: cell-based; conditions: 10 nM PAF, transfected BHK cells; for block of bovine PAFR function, PAF-mediated intracellular calcium accumulation (FIG. 11): antagonist 1-100 nM; for block of bovine PAFR function by antihistamines, PAF-mediated intracellular calcium accumulation (FIG. 12): antihistamine 1-100 nM
T1 construct: expressed in transfected cells; host or cells: BHK cells, transient transfection with lipofectamine, pcDNA3.3-PAFR

[1] = target: T2, Bovine H1 histamine receptor (Bos taurus, UniProt P30546); test: Histamine-mediated intracellular calcium accumulation in BHK cells transiently expressing bovine H1 histamine receptor; assay type: cell-based; conditions: 10 nM histamine; transfected BHK cells
T2 construct: expressed in transfected cells; host or cells: BHK cells, transient transfection with lipofectamine, pcDNA3.3
Procedure: Bovine H1 histamine receptor was cloned into pcDNA3.3 expression vector and transiently expressed in BHK tissue culture cells using lipofectamine as per Carlson et al. Ten nM histamine was then added to the cells in the presence of various concentrations of rupatadine, tripelennamine, lexipafant, or WEB2086. Intracellular calcium accumulation was monitored in the transfected cells using a commercially available kit (Abcam, Cambridge, Mass.). IC50 values were then determined by identifying the concentration of the antagonist that reduced the maximal PAF-mediated intracellular calcium accumulation by 50%. […] Therefore, as showing in Examples 11 and 12, rupatadine is the only antihistamine that can also block the function of PAFR.

PAFR [2] = target: T3, PAFR (Bos taurus, UniProt Q9TTY5); test: Stress hormone- and commensal oral bacteria-mediated second messenger accumulation in calf blood cells; assay type: cell-based, cattle; conditions: 500 nM inhibitor, blood of animals with increased PAFR expression, cortisol 5 ng/mL, norepinephrine 100 pg/mL, 10^6 CFUs/mL bacteria, six hours 37°C
T3 construct: endogenous in cells; host or cells: whole blood cells of cattle (ex vivo)
From the text: A PAFR inhibitor blocks the stress hormone- and commensal oral bacteria-mediated second messenger accumulation in calf blood cells that have an increase in expression of PAFR. Studies presented in Example 1 and FIG. 1 were repeated with the inclusion of the compositions comprising the anti-inflammatory drug rupatadine according to the invention. Blood was drawn from 10 animals that have an increase in PAFR expression (those in which an RT-PCR amplicon was visible after 10-15 cycles) and 10 animals with “normal” or no PAFR expression (those in which an RT-PCR amplicon was visible after 30-45 cycles).
Approximately 5 mL of whole blood was collected from the jugular or caudal vein of non-transported juvenile and adult cattle. Blood was placed in EDTA tubes, aliquoted, and cortisol (5 ng/mL) and norepinephrine (100 pg/mL) were added to some of the blood. The next day, blood samples were incubated with 0 or 10^6 CFUs/mL of commensal oral bacteria, 0 or 500 nM of the inhibitor, and a second messenger reagent for six hours at 37° C. with gentle rolling. After the six-hour incubation period, blood samples were analyzed for the production of second messengers. Data was standardized based on second messenger production in the presence of vehicle. […] Fifty ng of total RNA was then subjected to semi-quantitative RT-PCR to confirm the PAFR expression status of each animal.

BRD [3] = test: BRD prevention at the feedlot, drug in the feed; assay type: in vivo, calves
Procedure: An initial study was performed to confirm BRD prevention at the feedlot using an anti-inflammatory composition comprising rupatadine, the oral inhibitor of PAFR. A total of 18 calves were evaluated with the treatment arm receiving a dosage rate of 0.3 mg/kg. Calves were provided the drug in the feed during the first three weeks after entering the feedlot which is within the high risk 6-week period following transfer of the animal. Calves were purchased from a location in Joplin, Mo. having an overall incidence of BRD at >40% which is higher than the standard incidence of about 10% in cattle.
A further study was performed to confirm BRD prevention at the feedlot using the anti-inflammatory composition comprising rupatadine. The same methodology of Example 5 was employed with the modification of the number of calves and the dosage rate. The dosage rate was increased to 0.6 mg/kg. The number of calves were increased to 24 in total. The results are consistent to the first trial, including: 41.7% of treated calves (n=5 of 12) developed BRD whereas 100% of untreated calves (n=12 of 12) developed BRD.
A further study was performed to confirm BRD prevention at the feedlot using the anti-inflammatory composition comprising rupatadine as outlined in Example 5 with the modification of the number of calves (20 total) and the dosage rate. The dosage rate increased to 1.2 mg/kg.

[4] = Pharmacotherapeutic study, blood levels after oral administration to feedlot calves; assay type: in vivo; conditions: daily oral doses of 30 mg/animal for 5 days; six calves
Procedure: A pharmacotherapeutic study was completed to confirm the PAFRi survives the rumen and reaches therapeutic blood and lung concentrations following oral administration to feedlot calves. Six calves were purchased and given daily oral doses of 30 mg/animal of the drug rupatadine for 5 days. Blood was drawn five times on day one and twice per day thereafter to measure the blood levels of rupatadine.

BRD [5] = test: BRD prevention in high-risk calves, weekly injections (Example 13); assay type: in vivo; conditions: after five weeks of weekly subcutaneous 7 mg/kg; BRD(+) calves usually >25%
Procedure: Twenty-five high-risk BRD calves were transported to a new barn and five each were assigned to different treatment groups: no treatment, weekly subcutaneous injections of 7 mg/kg of rupatadine, weekly injections of 1 mg/kg tripelennamine, weekly injections of 10 mg/kg WEB2086, and weekly injections of 1 mg/kg tripelennamine and 10 mg/kg WEB2086. The animals were observed over the next five weeks twice daily for BRD. Any animal who required antibiotics for treating the clinical signs of BRD was classified as having BRD. […] Four of the five (80%, n=4 of 5) animals receiving tripelennamine only developed BRD.
After the five weeks, the rupatadine treated animals were euthanized and the lungs removed and necropsied. Three veterinarians then assessed the lungs for signs of disease, such as abscessation or consolidation. […] Lung pathology in BRD(+) calves is usually >25%, and of the rupatadine treated animals, there was only about 5-10% disease identified by the veterinarians.

BRD [6] = test: BRD prevention in high-risk calves, treatment methods of rupatadine (Example 14); assay type: in vivo
Procedure: In order to test various treatment methods of rupatadine, 25 high-risk calves were transported to a new farm. Seven calves were used as controls, six were given rupatadine as a single oral dose of 1 mg/kg, six were given rupatadine as a single subcutaneous injection of 7 mg/kg, six calves were given weekly subcutaneous injections of 7 mg/kg rupatadine. The animals were observed over the next five weeks twice daily for BRD. Any animal who required antibiotics for treating the clinical signs of BRD was classified as having BRD.
All the calves (100%, n=6 of 6) eventually developed BRD between days three and 31. […] The calf that did develop BRD did so on day 31.

PAFR [7] = test: PAFR level in blood of treated calves by qRT-PCR (Example 14); assay type: in vivo; conditions: weekly depot injection versus control and other rupatadine treatments
Procedure: Blood was extracted from all 25 calves was extracted weekly and the level of PAFR was assayed using qRT-PCR and the theoretical copies of transcript/200 ng of total RNA. […] However, it dropped the most in the weekly depot injection calves during the last three weeks of observations.

T2 sequence (P30546 whole entry): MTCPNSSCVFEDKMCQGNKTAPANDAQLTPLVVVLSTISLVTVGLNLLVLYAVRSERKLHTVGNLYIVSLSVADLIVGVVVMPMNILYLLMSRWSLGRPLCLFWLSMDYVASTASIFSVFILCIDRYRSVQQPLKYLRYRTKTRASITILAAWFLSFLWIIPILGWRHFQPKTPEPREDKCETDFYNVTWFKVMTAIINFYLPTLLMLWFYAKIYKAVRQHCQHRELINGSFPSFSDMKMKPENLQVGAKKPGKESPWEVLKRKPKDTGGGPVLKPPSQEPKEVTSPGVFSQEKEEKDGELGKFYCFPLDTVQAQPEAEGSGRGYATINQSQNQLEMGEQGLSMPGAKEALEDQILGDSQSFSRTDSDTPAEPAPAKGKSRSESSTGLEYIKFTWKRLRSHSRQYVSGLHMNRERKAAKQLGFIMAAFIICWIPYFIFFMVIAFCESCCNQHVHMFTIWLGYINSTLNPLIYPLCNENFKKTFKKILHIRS
T1 sequence (Q9TTY5 whole entry): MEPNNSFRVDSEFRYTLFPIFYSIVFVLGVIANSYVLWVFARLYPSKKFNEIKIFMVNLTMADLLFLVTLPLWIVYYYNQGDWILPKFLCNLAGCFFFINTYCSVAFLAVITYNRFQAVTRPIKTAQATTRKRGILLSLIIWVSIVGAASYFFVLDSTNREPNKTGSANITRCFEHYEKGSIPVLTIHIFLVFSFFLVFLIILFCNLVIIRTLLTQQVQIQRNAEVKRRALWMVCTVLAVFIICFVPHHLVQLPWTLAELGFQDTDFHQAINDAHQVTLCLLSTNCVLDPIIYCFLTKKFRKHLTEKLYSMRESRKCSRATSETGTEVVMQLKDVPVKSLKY
T3 sequence (Q9TTY5 whole entry): as above

| block of bovine PAFR function, PAF-mediated intracellular calcium accumulation (FIG. 11) (Bovine PAFR) | block of the function of the H1 histamine receptor, intracellular calcium accumulation (FIG. 13) [1] | block of bovine PAFR function by antihistamines, PAF-mediated intracellular calcium accumulation (FIG. 12) (Bovine PAFR) | SMILES | further results |
| --- | --- | --- | --- | --- |
|  |  | do not block | CN(C)CCOC(c1ccccc1)c1ccccc1 [diphenhydramine] |  |
|  |  | do not block | COc1ccc(CN(CCN(C)C)c2ccccn2)cc1 [pyrilamine] |  |
| not blocked | able to block | do not block | CN(C)CCN(Cc1ccccc1)c1ccccn1 [tripelennamine] |  |

The next lines start with the compound.

| SMILES | block of bovine PAFR function, PAF-mediated intracellular calcium accumulation (FIG. 11) (Bovine PAFR) | block of the function of the H1 histamine receptor, intracellular calcium accumulation (FIG. 13) [1] | block of bovine PAFR function by antihistamines, PAF-mediated intracellular calcium accumulation (FIG. 12) (Bovine PAFR) | further results |
| --- | --- | --- | --- | --- |
| Cc1nnc2n1-c1sc(CCC(=O)N3CCOCC3)cc1C(c1ccccc1Cl)=NC2 [WEB2086] | blocked | fail to black |  |  |
| OCCOCCN1CCN(C(c2ccccc2)c2ccc(Cl)cc2)CC1 (stereo not shown) [hydroxyazine] |  |  | do not block |  |
| CCOC(=O)[C@H](CC(C)C)N(C)S(=O)(=O)c1ccc(Cn2c(C)nc3cnccc32)cc1 [lexipafant] | blocked | fail to black |  |  |
| CC(CN1c2ccccc2Sc2ccccc21)N(C)C (stereo not shown) [promethazine] |  |  | do not block |  |
| Cc1cncc(CN2CCC(=C3c4ccc(Cl)cc4CCc4cccnc43)CC2)c1 [rupatadine, 8-chloro-11-[1-[(5-methyl-3-pyridyl)methyl]-4-piperidyliden]-6,11-dihydro-5H-benzo[5,6]cyclohepta[1,2-b]pyridine] | blocked | able to block | able to block PAFR function; also recorded: blocks | stress hormone- and commensal oral bacteria-mediated second messenger accumulation (PAFR [2]): blocks; stress hormone- and commensal oral bacteria-mediated second messenger accumulation (PAFR [2]; listed as PAFRi): indistinct from normal or non-expressing samples; treated calves that developed BRD (BRD [3]; 0.3 mg/kg in the feed, first three weeks after entering the feedlot, 8 treated calves, within 5 weeks): 50%; treated calves that developed BRD (BRD [3]; 0.6 mg/kg in the feed, n=5 of 12): 41.7%; treated calves that developed BRD (BRD [3]; 1.2 mg/kg in the feed, n=3 of 10): 33.3%; blood levels of rupatadine (FIG. 9) [4]: reaches therapeutic concentrations more rapidly than in humans; lung disease identified by the veterinarians at necropsy (BRD [5]): 5-10%; high risk animals that did not develop BRD (BRD [6]; weekly long-acting injections of 7 mg/kg): five out of six; animals that developed BRD (BRD [6]; weekly subcutaneous injections of 7 mg/kg, five-week observation, n=6): 16.7%; day on which the calf developed BRD (BRD [6]; weekly subcutaneous injections of 7 mg/kg, the one calf that developed BRD): 31 days; PAFR expression over a five-week period (PAFR [7]): greatest decrease in PAFR expression |
